Results from paper PMC10539501 (Nature Communications, 2023).
Starred links: 1 amine or outer side, 2 acyl side, 3 side chain; linkers in the order of their positions; H or OH if unused. Non-standard residues stand in square brackets, D forms with d. Residues, ends and D or L forms follow the SMILES beside them. X12 = C[C@@H](O)[C@H](N[*:1])C(=S)N[C@@H](Cc1ccccc1)C(=O)[*:2]; X8 = O=C([C@H](Cc1ccccc1)NC(=S)[C@@H]1CCCN1[*:1])[*:2]; X3 = CC(C)C[C@H](N[*:1])C(=S)N[C@H](CC(C)C)C(=O)[*:2]

How the values were obtained:
[1] = type: physicochemical
physchem = settings: pH 7.4
[2] = PAMPA passive permeability; type: in vitro ADME;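 also: passive permeability across an artificial membrane in 96-well pre-coated PAMPA plates, which lack transporters and efflux systems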
Protocol: Encouraged by this, the passive permeability of the analogs was evaluated using an artificial membrane (PAMPA), which measures permeability of compounds in the absence of transporters and efflux systems[32].
96-well BD Corning® pre-coated PAMPA plates were used following the supplier’s protocol, details in Supplementary Information.

[3] = Retention in hydrophobic C18 column by HPLC; settings: Supplementary Fig 3d, logD7.4 vs tR
[4] = type: physicochemical; remark: listed apart in the source
SSTR5 = target: T1, SSTR5 (Homo sapiens, UniProt P35346); assay: GloSensor assay, inhibition of forskolin-induced cAMP production; type: cell-based
T1 construct: expressed in transfected cells; host or cells: HEK-293T (CRL-3216)
Protocol: HEK-293T cells (CRL-3216 from ATCC, procured from NCCS, Pune) were co-transfected with human somatostatin receptor subtypes 2 & 5, plasmid cDNA, and cAMP biosensor (pGloSensorTM-22F plasmid; Promega Corp.) using PEImax. Ligand incubation was followed by the addition and incubation of forskolin (FSK) to the plate. Dose-dependent inhibition of forskolin-induced cAMP production by the peptide ligands was measured using a luminescence plate reader. An elaborate description of the assay setup has been provided in Supplementary Information.

in vitro [5] = settings: pig, simulated intestinal fluid
Protocol: We next assessed the stability of the macrocyclic peptides in Simulated Intestinal Fluid (SIF)[42], comprising of pancreatin, which is a mixture of several proteases produced by the exocrine cells of the porcine pancreas.
A stability assessment of the peptides was done in simulated gastric (SGF) and intestinal (SIF) fluids and human liver microsomes. The degradation kinetics of the aliquoted samples at desired time points were analyzed through RP-HPLC.

in vitro [6] = settings: both, human, plasma
Protocol: Blood was freshly drawn from three healthy adults, two male and one person of 26–28 year old. […] The plasma was separated by centrifugation. […] For checking metabolic stability, the required volume of plasma was pre-incubated at 37 °C prior to the experiment for 2 min, followed by spiking with the peptides. At different time points, plasma was aliquoted. The supernatant was separated and used for RP-HPLC quantification. Rapid Equilibrium Dialysis (RED) assay was performed to assess the plasma protein binding of the peptides following the supplier’s protocol.

in vitro [7] = settings: both, human, plasma; remark: listed apart in the source
SSTR2 = target: T2, SSTR2 (Homo sapiens, UniProt P30874); assay: GloSensor assay, inhibition of forskolin-induced cAMP production; type: cell-based
T2 construct: expressed in transfected cells; host or cells: HEK-293T (CRL-3216)

in vivo = settings: male, rat, sc
Protocol: Subsequently, we selected 13a, 13b, 13d, and 13e for assessing their plasma exposure post single dose subcutaneous injection into male Sprague Dawley rats.
All animals were housed individually in the animal facility at Anthem Biosciences Pvt. Ltd and were acclimatized for 3 days. All animals were fasted overnight before dosing, whereas access to water was provided ad libitum. Peptides were administered orally and via s.c. route and blood samples were collected at different time points through a jugular vein catheter.

T1 sequence (P35346 whole entry): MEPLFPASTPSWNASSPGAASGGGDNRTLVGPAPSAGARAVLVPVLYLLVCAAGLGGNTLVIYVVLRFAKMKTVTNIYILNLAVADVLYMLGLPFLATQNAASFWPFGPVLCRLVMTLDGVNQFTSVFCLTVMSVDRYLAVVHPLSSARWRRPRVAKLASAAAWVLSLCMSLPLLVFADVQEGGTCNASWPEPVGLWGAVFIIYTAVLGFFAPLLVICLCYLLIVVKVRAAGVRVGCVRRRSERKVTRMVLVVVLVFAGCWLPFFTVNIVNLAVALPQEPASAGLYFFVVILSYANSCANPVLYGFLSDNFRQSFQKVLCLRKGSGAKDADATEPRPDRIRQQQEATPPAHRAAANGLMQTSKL
T2 sequence (P30874 whole entry): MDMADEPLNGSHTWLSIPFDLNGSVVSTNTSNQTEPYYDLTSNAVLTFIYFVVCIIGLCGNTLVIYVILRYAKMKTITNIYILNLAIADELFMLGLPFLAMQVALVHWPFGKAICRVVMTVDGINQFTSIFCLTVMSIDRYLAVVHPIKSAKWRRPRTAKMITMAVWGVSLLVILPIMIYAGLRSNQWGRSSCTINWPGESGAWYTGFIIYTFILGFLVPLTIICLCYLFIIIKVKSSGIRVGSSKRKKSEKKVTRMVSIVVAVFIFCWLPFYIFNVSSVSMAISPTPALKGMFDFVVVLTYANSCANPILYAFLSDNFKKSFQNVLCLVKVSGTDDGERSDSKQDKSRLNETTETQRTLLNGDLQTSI

| SMILES | % solubility [1] | logD (physchem) | Papp ([2]; Pe Avg) | tR [3] | logD heptane ethylene glycol [4] | binding against SSTR5 (in words) (SSTR5; HEK293T cells expressing SSTR5, cAMP GloSensor) | half-life (in vitro [5]) | Papp ([2]; Pe) | half-life (in vitro [6]) | fraction unbound (in vitro [7]) | binding against SSTR2 (in words) (SSTR2; HEK293T cells expressing SSTR2, cAMP GloSensor) | IC50 (SSTR5) | level at 0.5 h (in vivo; Sprague Dawley) | level at 1 h (in vivo; Sprague Dawley) | half-life (in vivo; Sprague-Dawley) | IC50 (SSTR2; read-out: IC50 sstr2) | Papp ([2]; Pe (PAMPA vs logD7.4)) |
| --- | --- | --- | --- | --- | --- | --- | --- | --- | --- | --- | --- | --- | --- | --- | --- | --- | --- |
| CC(C)C[C@@H]1NC(=O)[C@@H](CC(C)C)NC(=O)[C@H]2CCCN2C(=O)[C@H](CC(C)C)NC(=O)[C@@H](CC(C)C)NC(=S)[C@H](CC(C)C)NC(=O)[C@@H]2CCCN2C(=O)[C@@H](C)NC1=O [12h] (cyclo([X3]L[dP][dL]L[dA]P)) | 40% | 1.49 | 7.7 ×10⁻⁶ cm/s | 16.4 min |  |  |  |  |  |  |  |  |  |  |  |  |  |
| CC[C@H](C)[C@@H]1NC(=O)[C@@H]2CCCN2C(=O)[C@H]([C@@H](C)CC)NC(=O)[C@@H]2CCCN2C(=O)[C@H](Cc2ccccc2)NC(=O)[C@H](C)NC(=O)[C@H](C)NC1=O [compound 11, cyclo(-Ile^1-Ala-Ala-Phe-Pro-Ile-Pro^7-)] (cyclo(AAFPIPI)) | 95% | 0.1 | 0.4 ×10⁻⁶ cm/s | 5.299 min |  |  |  |  |  |  |  |  |  |  |  |  | 0.41 ×10⁻⁶ cm/s |
| CC(C)C[C@@H]1NC(=O)[C@@H](CC(C)C)NC(=O)[C@H]2CCCN2C(=O)[C@H](CC(C)C)NC(=O)[C@@H](CC(C)C)NC(=O)[C@H](CC(C)C)NC(=O)[C@@H]2CCCN2C(=O)[C@@H](C)NC1=O [compound 12, cyclo(-D-Leu^1-Leu-D-Pro-D-Leu-Leu-D-Ala-Pro-Leu^8-)] (cyclo(L[dA]PL[dL]L[dP][dL])) | 94% | 0.75 | 3 ×10⁻⁶ cm/s | 12.6 min |  |  |  |  |  |  |  |  |  |  |  |  |  |

Results, then the compound that gave them:

| % solubility [1] | logD (physchem) | Papp ([2]; Pe Avg) | tR [3] | logD heptane ethylene glycol [4] | binding against SSTR5 (in words) (SSTR5; HEK293T cells expressing SSTR5, cAMP GloSensor) | half-life (in vitro [5]) | Papp ([2]; Pe) | half-life (in vitro [6]) | fraction unbound (in vitro [7]) | binding against SSTR2 (in words) (SSTR2; HEK293T cells expressing SSTR2, cAMP GloSensor) | IC50 (SSTR5) | level at 0.5 h (in vivo; Sprague Dawley) | level at 1 h (in vivo; Sprague Dawley) | half-life (in vivo; Sprague-Dawley) | IC50 (SSTR2; read-out: IC50 sstr2) | Papp ([2]; Pe (PAMPA vs logD7.4)) | SMILES |
| --- | --- | --- | --- | --- | --- | --- | --- | --- | --- | --- | --- | --- | --- | --- | --- | --- | --- |
|  | -1.04 |  |  | -1.18 | complete loss in binding | 2.5 h | 0.96 ×10⁻⁶ cm/s | 33 h | 0.21 | complete loss in binding |  |  |  |  |  |  | C[C@@H](O)[C@@H]1NC(=O)[C@H](CCCCN)NC(=O)[C@@H](Cc2c[nH]c3ccccc23)NC(=O)[C@H](Cc2ccccc2)NC(=O)[C@@H]2CCCN2C(=O)[C@H](Cc2ccccc2)NC1=S [13c] (cyclo(F[dW]K[X12]P)) |
|  | -0.72 |  |  | -1.16 |  |  | 1.92 ×10⁻⁶ cm/s | 31 h | 0.09 |  | 232 ± 70.4 nM | 38.1 ng/mL | 57 ng/mL | 0.6 ± 0.3 h | 19.2 ± 11.4 nM |  | C[C@@H](O)[C@@H]1NC(=O)[C@H](CCCCN)NC(=O)[C@@H](Cc2c[nH]c3ccccc23)NC(=O)[C@H](Cc2ccccc2)NC(=S)[C@@H]2CCCN2C(=O)[C@H](Cc2ccccc2)NC1=O [13e] (cyclo(F[X8][dW]KT)) |
